Source: patent US20120264735A1 (priority 2009, published 2012)

The compounds below were run against T1, c-Met kinase (recombinant c-Met) (Homo sapiens, UniProt P08581) (assay: In vitro kinase assay I (homogeneous time-resolved fluorescence tyrosine kinase assay)).
T1 construct: 0.27 nM recombinant c-Met
Assay type: biochemical
How it was run: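 Biotinylated peptide (0.5 μM) phosphorylated by 0.2 nM recombinant c-Met with 50 μM MgATP, 60 min at room temperature, pH 7.4, 5% DMSO. EDTA stop; HTRF read with Eu-anti-phosphotyrosine antibody and streptavidin-APC. IC50 from 4-parameter logistic fit.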

T1 sequence (P08581 25-1390): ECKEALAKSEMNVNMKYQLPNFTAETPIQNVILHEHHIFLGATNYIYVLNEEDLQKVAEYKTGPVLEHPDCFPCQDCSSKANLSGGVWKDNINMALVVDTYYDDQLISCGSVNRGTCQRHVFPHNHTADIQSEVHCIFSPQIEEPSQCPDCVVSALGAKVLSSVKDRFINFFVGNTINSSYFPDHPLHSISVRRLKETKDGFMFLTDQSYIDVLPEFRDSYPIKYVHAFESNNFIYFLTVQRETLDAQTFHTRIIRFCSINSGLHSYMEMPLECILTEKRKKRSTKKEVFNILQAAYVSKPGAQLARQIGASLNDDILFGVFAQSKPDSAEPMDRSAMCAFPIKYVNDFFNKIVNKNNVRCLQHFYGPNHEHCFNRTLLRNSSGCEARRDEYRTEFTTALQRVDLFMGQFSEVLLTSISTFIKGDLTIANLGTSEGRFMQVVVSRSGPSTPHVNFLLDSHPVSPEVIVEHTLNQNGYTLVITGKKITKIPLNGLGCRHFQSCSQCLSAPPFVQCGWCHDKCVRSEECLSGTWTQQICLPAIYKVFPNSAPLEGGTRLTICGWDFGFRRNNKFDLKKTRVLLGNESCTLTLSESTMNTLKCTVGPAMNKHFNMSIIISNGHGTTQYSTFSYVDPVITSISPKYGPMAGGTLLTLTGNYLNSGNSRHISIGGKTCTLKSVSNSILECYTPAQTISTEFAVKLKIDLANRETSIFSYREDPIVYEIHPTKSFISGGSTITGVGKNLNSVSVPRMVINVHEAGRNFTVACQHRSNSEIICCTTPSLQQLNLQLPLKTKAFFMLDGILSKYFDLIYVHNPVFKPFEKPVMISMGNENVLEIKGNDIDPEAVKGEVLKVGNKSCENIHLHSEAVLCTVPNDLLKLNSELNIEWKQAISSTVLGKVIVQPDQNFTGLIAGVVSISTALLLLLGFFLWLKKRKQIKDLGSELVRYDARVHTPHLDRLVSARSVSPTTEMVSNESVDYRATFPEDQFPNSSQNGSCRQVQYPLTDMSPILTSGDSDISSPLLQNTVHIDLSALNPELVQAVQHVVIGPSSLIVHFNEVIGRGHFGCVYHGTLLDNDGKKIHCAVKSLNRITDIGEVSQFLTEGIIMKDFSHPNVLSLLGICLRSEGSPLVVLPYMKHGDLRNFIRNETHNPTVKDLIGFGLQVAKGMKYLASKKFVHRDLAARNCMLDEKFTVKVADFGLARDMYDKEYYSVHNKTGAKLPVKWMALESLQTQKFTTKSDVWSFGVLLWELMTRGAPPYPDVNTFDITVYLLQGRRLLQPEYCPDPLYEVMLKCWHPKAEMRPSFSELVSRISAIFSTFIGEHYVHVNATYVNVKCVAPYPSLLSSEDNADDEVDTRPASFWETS

`CN(C)Cc1cnc(-c2cccc(Cc3nn(-c4cnn(C)c4)ccc3=O)c2)nc1` [Example 430, 3-(3-{5-[(dimethylamino)methyl]pyrimidin-2-yl}benzyl)-1-(1-methyl-1H-pyrazol-4-yl)pyridazin-4(1H)-one] and `CCCN(C)c1cnc(-c2cccc(Cc3nn(-c4cnn(C)c4)ccc3=O)c2)nc1` [Example 456, 3-(3-{5-[Methyl(propyl)amino]pyrimidin-2-yl}benzyl)-1-(1-methyl-1H-pyrazol-4-yl)pyridazin-4(1H)-one] cannot be ordered by IC50: less than 100 nM for the first, less than 100 nM for the second.

`CC(C)COC(=O)Nc1cccc(Cc2nn(-c3cnn(CCCC(=O)N4CCOCC4)c3)ccc2=O)c1` [Example 698, 2-methylpropyl [3-({1-[1-(4-morpholin-4-yl-4-oxobutyl)-1H-pyrazol-4-yl]-4-foundoxo-1,4-dihydropyridazin-3-yl}methyl)phenyl] carbamate] and `CCCn1cc(-n2ccc(=O)c(Cc3cccc(NC(=O)OCC(C)C)c3)n2)cn1` [Example 113, 2-methylpropyl (3-{[4-oxo-1-(1-propyl-1H-pyrazol-4-yl)-1,4-dihydropyridazin-3-yl]methyl}phenyl)carbamate] cannot be ordered by IC50: less than 100 nM for the first, less than 100 nM for the second.

`Cn1cc(-n2ccc(=O)c(Cc3cccc(NC(=O)OCC(F)CN4CCOCC4)c3)n2)cn1` (racemic) [Example 638, rac-2-Fluoro-3-morpholin-4-ylpropyl (3-{[1-(1-methyl-1H-pyrazol-4-yl)-4-oxo-1,4-dihydropyridazin-3-yl]methyl}phenyl)carbamate] and `CCn1cc(-n2ccc(=O)c(Cc3cccc(NC(=O)OCCN4CCOCC4)c3)n2)cn1` [Example 115, 2-morpholin-4-ylethyl (3-{[1-(1-ethyl-1H-pyrazol-4-yl)-4-oxo-1,4-dihydropyridazin-3-yl]methyl}phenyl)carbamate] cannot be ordered by IC50: less than 100 nM for the first, less than 100 nM for the second.

`CCOc1cnc(-c2cccc(Cc3nn(-c4cnn(CCO)c4)ccc3=O)c2)nc1` [Example 193, 3-[3-(5-ethoxypyrimidin-2-yl)benzyl]-1-[1-(2-hydroxyethyl)-1H-pyrazol-4-yl]pyridazin-4(1H)-one] and `CCn1cc(-n2ccc(=O)c(Cc3cccc(-c4ncc(OCC(C)(C)O)cn4)c3)n2)cn1` [Example 359, 1-(1-ethyl-1H-pyrazol-4-yl)-3-{3-[5-(2-hydroxy-2-methylpropoxy)pyrimidin-2-yl]benzyl}pyridazin-4(1H)-one] cannot be ordered by IC50: less than 100 nM for the first, less than 100 nM for the second.

`Cn1cc(-c2cnc(-c3cccc(Cc4nn(-c5cnn(C)c5)ccc4=O)c3)nc2)cn1` [Example 154, 1-(1-methyl-1H-pyrazol-4-yl)-3-{3-[5-(1-methyl-1H-pyrazol-4-yl)pyrimidin-2-yl]benzyl}pyridazin-4(1H)-one] and `Cn1cc(-n2ccc(=O)c(Cc3cccc(-c4ncc(C5CCOC5)cn4)c3)n2)cn1` (racemic) [compound 199, rac-1-(1-methyl-1H-pyrazol-4-yl)-3-{3-[5-(tetrahydrofuran-3-yl)pyrimidin-2-yl]benzyl} pyridazin-4(1H)-one] cannot be ordered by IC50: less than 100 nM for the first, less than 100 nM for the second.

`Cn1cc(-n2ccc(=O)c(Cc3cccc(-c4ncc([C@]5(F)CCNC[C@@H]5O)cn4)c3)n2)cn1` (racemic) [Example 749, rac-3-({3-[5-(trans-4-Fluoro-3-hydroxypiperidin-4-yl)pyrimidin-2-yl]benzyl}-1-(1-methyl-1H-pyrazol-4-yl)pyridazin-4(1H)-one] and `COCC(=O)Nc1cnc(-c2cccc(Cc3nn(-c4cnn(C)c4)ccc3=O)c2)nc1` [Example 461, 2-methoxy-N-[2-(3-{[1-(1-methyl-1H-pyrazol-4-yl)-4-oxo-1,4-dihydro-pyridazin-3-yl]methyl}phenyl)pyrimidin-5-yl]acetamide] cannot be ordered by IC50: less than 100 nM for the first, less than 100 nM for the second.

`Cn1cc(-n2ccc(=O)c(Cc3cccc(NC(=O)OCCN4CCS(=O)(=O)CC4)c3)n2)cn1` [Example 567, 2-(1,1-dioxidothio-morpholin-4-yl)ethyl (3-{[1-(1-methyl-1H-pyrazol-4-yl)-4-oxo-1,4-dihydropyridazin-3-yl]methyl}phenyl)carbamate] and `CC(C)COC(=O)Nc1cccc(Cc2nn(-c3cnn(C)c3)ccc2=O)c1` [Example 53, 2-methylpropyl (3-{[1-(1-methyl-1H-pyrazol-4-yl)-4-oxo-1,4-dihydropyridazin-3-yl]methyl}phenyl)carbamate] cannot be ordered by IC50: less than 100 nM for the first, less than 100 nM for the second.

`O=C(Nc1cccc(Cc2nn(-c3cc(F)cc(F)c3)ccc2=O)c1)OCC1CCOCC1` [Example 606, tetrahydro-2H-pyran-4-ylmethyl (3-{[1-(3,5-difluorophenyl)-4-oxo-1,4-dihydropyridazin-3-yl]methyl}phenyl)carbamate] and `CC(C)(O)CCOC(=O)Nc1cccc(Cc2nn(-c3cc(F)c(F)c(F)c3)ccc2=O)c1` [Example 514, 3-hydroxy-3-methylbutyl (3-{[4-oxo-1-(3,4,5-trifluorophenyl)-1,4-dihydropyridazin-3-yl]methyl}phenyl)carbamate] cannot be ordered by IC50: less than 100 nM for the first, less than 100 nM for the second.

First: CCn1cnc(-c2cccc(C(C)c3nn(-c4cnn(C)c4)ccc3=O)c2)n1 (single isomer, unassigned) [Example 680, 3-{(1S or R)-1-[3-(1-ethyl-1H-1,2,4-triazol-3-yl)phenyl]ethyl}-1-(1-methyl-1H-pyrazol-4-yl)pyridazin-4(1H)-one]
Second: CCn1cc(-n2ccc(=O)c(C(C)c3cccc(-c4ncc(COC)cn4)c3)n2)cn1 (single isomer, unassigned) [Example 218, 1-(1-ethyl-1H-pyrazol-4-yl)-3-((1R or S)-1-{3-[5-(methoxymethyl)pyrimidin-2-yl]phenyl}ethyl)pyridazin-4(1H)-one]
The IC50 of the first is higher: 100 to 1000 nM for the first, less than 100 nM for the second. The second is the more potent here.

`CCn1cc(-n2ccc(=O)c(Cc3cccc(-c4ncc(OCC5CCN(C)CC5)cn4)c3)n2)cn1` [Example 172, 1-(1-ethyl-1H-pyrazol-4-yl)-3-(3-{5-[(1-methylpiperidin-4-yl)methoxy]pyrimidin-2-yl}benzyl)pyridazin-4(1H)-one] and `COCCN(C)c1cnc(-c2cccc(Cc3nn(-c4cnn(C)c4)ccc3=O)c2)nc1` [compound 457, 3-(3-{5-[(2-methoxyethyl) (methyl)amino]pyrimidin-2-yl}benzyl)-1-(1-methyl-1H-pyrazol-4-yl)pyridazin-4(1H)-one] cannot be ordered by IC50: less than 100 nM for the first, less than 100 nM for the second.

`CC(C)COC(=O)Nc1cccc(Cc2nn(-c3ccn(C)n3)ccc2=O)c1` [Example 26, 2-methylpropyl (3-{[1-(1-methyl-1H-pyrazol-3-yl)-4-oxo-1,4-dihydropyridazin-3-yl]methyl}phenyl)carbamate] and `CCC(C)COC(=O)Nc1cccc(Cc2nn(-c3cnn(C)c3)ccc2=O)c1` (racemic) [Example 573, rac-2-methylbutyl (3-{[1-(1-methyl-1H-pyrazol-4-yl)-4-oxo-1,4-dihydropyridazin-3-yl]methyl}phenyl)carbamate] cannot be ordered by IC50: less than 100 nM for the first, less than 100 nM for the second.

`CCOc1cnc(-c2cccc(Cc3nn(-c4cnn(C)c4F)cc(F)c3=O)c2)nc1` [compound 752] and `CCOc1cnc(-c2cccc(Cc3nn(-c4cc(F)c(Br)c(F)c4)ccc3=O)c2)nc1` [Example 147, 1-(4-bromo-3,5-difluorophenyl)-3-[3-(5-ethoxypyrimidin-2-yl)benzyl]pyridazin-4(1H)-one] cannot be ordered by IC50: less than 100 nM for the first, less than 100 nM for the second.

`CC(c1cccc(-c2ncc(OC3CCOCC3)cn2)c1)c1nn(-c2cnn(C)c2)ccc1=O` (single isomer, unassigned) [Example 211, 1-(1-methyl-1H-pyrazol-4-yl)-3-[(1S or R)-1-{3-[5-(tetrahydro-2H-pyran-4-yloxy)pyrimidin-2-yl]phenyl}ethyl]pyridazin-4(1H)-one] and `Cn1cc(-n2ccc(=O)c(Cc3cccc(-c4ncc(OC5CCC6(CC5)OCCO6)cn4)c3)n2)cn1` [Example 123, 3-{3-[5-(1,4-dioxaspiro[4.5]dec-8-yloxy)pyrimidin-2-yl]benzyl}-1-(1-methyl-1H-pyrazol-4-yl)pyridazin-4(1H)-one] cannot be ordered by IC50: less than 100 nM for the first, less than 100 nM for the second.

`[2H]C([2H])([2H])n1cc(-n2ccc(=O)c(C(F)c3cccc(-c4ncc(OC([2H])([2H])C([2H])([2H])[2H])cn4)c3)n2)cn1` (racemic) [Example 658, rac-3-[[3-(5-Ethoxypyrimidin-2-yl)phenyl](fluoro)methyl]-1-(1-methyl-1H-pyrazol-4-yl)pyridazin-4(1H)-one-d8] and `Cn1cc(-n2ccc(=O)c(Cc3cccc(-c4ncc(OCC(O)c5ccncc5)cn4)c3)n2)cn1` (racemic) [Example 367, rac-3-(3-{5-[2-hydroxy-2-(pyridin-4-yl)ethoxy]pyrimidin-2-yl}benzyl)-1-(1-methyl-1H-pyrazol-4-yl)pyridazin-4(1H)-one] cannot be ordered by IC50: less than 100 nM for the first, less than 100 nM for the second.

First: CNC(=O)Nc1cccc(Cc2nn(-c3cnn(C)c3)ccc2=O)c1 [Example 487, 1-Methyl-3-(3-{[1-(1-methyl-1H-pyrazol-4-yl)-4-oxo-1,4-dihydropyridazin-3-yl]methyl}phenyl)urea]
Second: Cn1cc(-n2ccc(=O)c(Cc3ccc4occc4c3)n2)cn1 [Example 51, 3-(1-benzofuran-5-ylmethyl)-1-(1-methyl-1H-pyrazol-4-yl)pyridazin-4(1H)-one]
The IC50 of the first is lower: less than 100 nM for the first, 1000 to 3000 nM for the second. The first is the more potent here.

First: CCOc1cnc(-c2cccc(Cc3nn(-c4ccc(Br)c(F)c4)ccc3=O)c2)nc1 [Example 145, 1-(4-Bromo-3-fluorophenyl)-3-[3-(5-ethoxypyrimidin-2-yl)benzyl]pyridazin-4(1H)-one]
Second: CCOc1cnc(-c2cccc(C(CCC#N)c3nn(-c4cn[nH]c4)ccc3=O)c2)nc1 (racemic) [Example 665, rac-4-[3-(5-Ethoxypyrimidin-2-yl)phenyl]-4-[4-oxo-1-(1H-pyrazol-4-yl)-1,4-dihydropyridazin-3-yl]butanenitrile]
The IC50 of the first is lower: less than 100 nM for the first, 100 to 1000 nM for the second.

First: Cn1cc(-n2ccc(=O)c(C(F)c3ccc4ncccc4c3)n2)cn1 (racemic) [Example 753, rac-3-[Fluoro(quinolin-6-yl)methyl]-1-(1-methyl-1H-pyrazol-4-yl)pyridazin-4(1H)-one]
Second: Cn1cc(-n2ccc(=O)c(Cc3cccc(-c4ncn(CCC5CCCO5)n4)c3)n2)cn1 (racemic) [Example 711, rac-1-(1-methyl-1H-pyrazol-4-yl)-3-(3-{1-[2-(tetrahydrofuran-2-yl)ethyl]-1H-1,2,4-triazol-3-yl}benzyl)pyridazin-4(1H)-one]
The IC50 of the first is higher: 1000 to 3000 nM for the first, less than 100 nM for the second.
